Measured values from US20260034192A1 (University of Saskatchewan, priority 2022, published 2026).
Marks after values point to notes of the source that are not given here. Square brackets hold non-standard residues; d marks the D form. Peptide text beside a SMILES is read from it. dPhe(4-Cl) = N[C@H](Cc1ccc(Cl)cc1)C(=O)O; d2Nal = N[C@H](Cc1ccc2ccccc2c1)C(=O)O; dCit = NC(=O)NCCC[C@@H](N)C(=O)O; d3Pal = N[C@H](Cc1cccnc1)C(=O)O

What was measured:
[1] = tested on: heifers; experiment: Single 3 mg Cetrorelix injection on Day 1, 3 or 6 of wave in heifers (Example 5); assay type: in vivo, cattle; conditions: for Pregnant/AI: diagnosis 30 days after AI; for Ovulatory follicle size: in mm (unit assumed)
Experimental: Heifers on a random day of the cycle were treated with two i/m injections of prostaglandin analog and observed by transrectal ultrasonography for the day of ovulation (Defined as Day 0 of the wave). Heifers were then randomized into 4 groups (n=7 to 8 per group) and treated with normal saline (control group) or a single 3 mg i/m injection of cetrorelix on Day 1, Day 3 or Day 6 of the first follicular wave. […] Pregnancy diagnosis was done 30 days after artificial insemination.

[2] = after single injection of 0.25 mg in women; cited from earlier work
[3] = tested on: mature Angus heifers; experiment: Cetrorelix versus estradiol benzoate synchronization protocol with AI, random day of cycle (Example 7); assay type: in vivo, cattle
Experimental: This experiment was conducted on 38 mature Angus heifers at the Federal University of Santa Maria in Brazil. Heifers on a random day of the cycle (defined as Day 0) were divided into 2 groups (n=19 per group) and treated with a single i/m injection of 3 mg cetrorelix or with estradiol benzoate (1 mg i/m). A progesterone-releasing device (CIDR) was placed in the vagina of heifers at this time. Eight days after the cetrorelix or estradiol treatments, heifers were given 500 ug cloprostenol (prostaglandin analog) i/m injections and the CIDR device was removed. […] Heifers were given 250 ug gonadorelin acetate (GnRH analog) i/m injection at the time of artificial insemination. […] Pregnancy diagnosis was done 29-30 days after artificial insemination.

[4] = single 3 mg i/m on Day 1 (Cetro 1)
[5] = single 3 mg i/m on Day 3 (Cetro 3)
[6] = single 3 mg i/m on Day 6 (Cetro 6)
[7] = three cetrorelix groups combined
[8] = 3 mg cetrorelix or 1 mg estradiol benzoate i/m

CC(=O)N[C@H](Cc1ccc2ccccc2c1)C(=O)N[C@H](Cc1ccc(Cl)cc1)C(=O)N[C@H](Cc1cccnc1)C(=O)N[C@@H](CO)C(=O)N[C@@H](Cc1ccc(O)cc1)C(=O)N[C@H](CCCNC(N)=O)C(=O)N[C@@H](CC(C)C)C(=O)N[C@@H](CCCNC(=N)N)C(=O)N1CCC[C@H]1C(=O)N[C@H](C)C(N)=O [Cetrorelix, N-acetyl-3-(2-naphthyl)-D-alanyl-4-chloro-D-phenylalanyl-3-(3-pyridyl)-D-alanyl-L-seryl-L-tyrosyl-D-citrullyl-L-leucyl-L-arginyl-L-prolyl-D-alaninamide] (Ac-[d2Nal][dPhe(4-Cl)][d3Pal]SY[dCit]LRP[dA]-NH2)
Wave emergence after the cetrorelix treatment irrespective of the phase of the dominant follicle ([1]; single 3 mg (about 7.5 ug/kg) i/m, groups combined): about 3.5±0.4 days | Start of dominant follicle regression after cetrorelix treatment ([1]; single 3 mg i/m): ≤ 2 days | Day of second wave emergence [1, 4]: 4.4 ± 0.5^c | Days from second wave emergence to ovulation [1, 4]: 10.0 ± 0.6^ab* Days | Pregnancy rate (Pregnant/AI, percent) [1, 4]: (62%) | Treatment to wave emergence [1, 4]: 3.4 ± 0.5 days | Pregnant/AI [1, 4]: 5/8 | Ovulatory follicle size [1, 4]: 14.4 ± 1.0 | Day of second wave emergence [1, 5]: 7.0 ± 0.4^b | Days from second wave emergence to ovulation [1, 5]: 9.0 ± 0.4^ab Days | Pregnancy rate (Pregnant/AI, percent) [1, 5]: (66%) | Treatment to wave emergence (days) [1, 5]: 4.0 ± 0.4^ days | Pregnant/AI [1, 5]: 4/6 | Ovulatory follicle size [1, 5]: 15.8 ± 0.6 | Day of second wave emergence [1, 6]: 9.4 ± 0.5^a | Days from second wave emergence to ovulation [1, 6]: 8.4 ± 0.4^b Days | Pregnancy rate (Pregnant/AI, percent) [1, 6]: (42%) | Treatment to wave emergence [1, 6]: 3.4 ± 0.5 days | Pregnant/AI [1, 6]: 3/7 | Ovulatory follicle size [1, 6]: 14.9 ± 0.3 | Overall pregnancy rate, percent [1, 7]: 57% | Overall pregnancy rate, pregnant/AI [1, 7]: 12/21 | Elimination half-life [2]: 5 h | Heifers showing estrous behavior, compared with estradiol-progesterone treatment ([3]; 3 mg cetrorelix i/m): greater proportion | Pregnant/Double AI [3, 8]: 7/9 | Pregnant/Double AI, percent [3, 8]: 78% | Pregnant/Single AI [3, 8]: 8/10 | Pregnant/Single AI, percent [3, 8]: 80% | Ovulations that occurred between 72 to 96 hr after prostaglandin injection ([3]; cetrorelix protocol): 90% | Pregnant/Total, percent (pregnancy rate) ([3]; random day of cycle, 3 mg cetrorelix i/m or 1 mg estradiol benzoate i/m, CIDR 8 days): 79% | Pregnant/Total ([3]; random day of cycle, 3 mg cetrorelix i/m or 1 mg estradiol benzoate i/m, CIDR 8 days, PGF, GnRH at AI): 15/19
